The source of these data is patent US20240174637A1, “DEGRADERS OF GRK2 AND USES THEREOF” (Sonata Therapeutics, Inc., priority 2021, published 2024).

For one experiment, the system named is PAXF1657 KO Clone #4. Briefly: 7-day cellular proliferation assay (CellTiter-Glo), PAXF1657 KO Clone #4. To be noted: proliferation, read-out: GeoMean IC50 (uM) PAXF1657 KO Clone #4. It counts as cell-based. A digest of the protocol: (§1)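 Viability by CellTiter-Glo after 7 days at 37° C., with compound-containing media replaced on day 3. Cells (500/well, RPMI1640 + 10% FBS) were PAXF1657 pairs: GRK2 overexpression vs empty vector, or CRISPR GRK2 knockout vs non-targeting clones; doses 30 μM-0.0002 μM final, 10 points, 0.3% DMSO.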
For orientation: ATP-based viability assays read luminescence as a measure of living cells.

The target of experiment [1] is T1, GRK2 (Homo sapiens, UniProt P25098).
T1 sequence (P25098 1-689): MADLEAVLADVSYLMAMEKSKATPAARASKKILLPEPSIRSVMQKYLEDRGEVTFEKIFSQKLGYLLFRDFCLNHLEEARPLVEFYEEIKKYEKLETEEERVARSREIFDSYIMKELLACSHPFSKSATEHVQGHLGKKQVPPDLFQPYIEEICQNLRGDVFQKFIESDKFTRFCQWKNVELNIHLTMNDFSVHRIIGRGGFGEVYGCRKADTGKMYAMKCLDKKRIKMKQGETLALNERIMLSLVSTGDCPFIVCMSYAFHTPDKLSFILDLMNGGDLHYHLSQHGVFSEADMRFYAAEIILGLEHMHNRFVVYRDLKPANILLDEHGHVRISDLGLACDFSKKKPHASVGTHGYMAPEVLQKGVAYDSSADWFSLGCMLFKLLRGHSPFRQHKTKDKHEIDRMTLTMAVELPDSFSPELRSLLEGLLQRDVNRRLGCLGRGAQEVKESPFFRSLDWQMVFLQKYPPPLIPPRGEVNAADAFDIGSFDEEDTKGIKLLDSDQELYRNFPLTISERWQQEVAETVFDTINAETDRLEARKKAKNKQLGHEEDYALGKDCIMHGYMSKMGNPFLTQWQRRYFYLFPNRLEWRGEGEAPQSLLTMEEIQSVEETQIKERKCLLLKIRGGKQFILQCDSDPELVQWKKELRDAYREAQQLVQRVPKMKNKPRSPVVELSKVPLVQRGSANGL
The experiment can be described thus: GRK2 Inhibition Assay (TR-FRET, Example 1). As to conditions: Table 4; Example 1 assay; read-out: Enzymatic GRK2 IC50: Av IC50 GRK2. Type of experiment: biochemical. A digest of the protocol:
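TR-FRET phosphorylation readout: Eu anti-TopoIIα antibody with EDTA added after a 90 min RT kinase reaction of 1 nM GRK2, 7 μM ATP and 50 nM ULight-TopoIIα. Compounds were pre-incubated with enzyme 30 min at room temperature beforehand.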

The target of experiment [2] is T1, GRK2. Briefly: GRK2 Degradation Assay and Western Blot in PAXF1657 cells. To be noted: for inhibition at 0.3 µM: Conc 0.3 uM; for inhibition at 0.3 µM / inhibition at 1 µM / inhibition at 3 µM: read-out: Degradation Assay - 3 point: Degradation (%); for inhibition at 1 µM: Conc 1 uM; for inhibition at 3 µM: Conc 3 uM. Type of experiment: cell-based. Details: endogenous in cells; host or cells: PAXF1657. In outline:
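GRK2 degradation judged by immunoblot: NP40 lysates separated by SDS-PAGE and probed for GRK2 and β-actin, with HRP/ECL detection. Lysates came from PAXF1657 cells exposed to 0–10 μM compound for 6–24 h after reaching 70% confluency.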
(In general: Immunoblotting shows a protein as a band on a membrane.)

A further experiment relates to PAXF1657 EV. Briefly: 7-day cellular proliferation assay (CellTiter-Glo), PAXF1657 EV. Type of experiment: cell-based. As to conditions: proliferation, read-out: GeoMean IC50 (UM) PAXF1657 EV. In outline:
as §1

For orientation: IC50 means the concentration that gives 50% inhibition. For the molecule `Cc1ncsc1-c1ccc(CNC(=O)[C@@H]2C[C@@H](O)CN2C(=O)[C@@H](NC(=O)CCCOCCOCCOCCCCCCCCOc2ccc([C@@H](C)NC(=O)c3cccc(NCc4nnc(-c5ccncn5)n4C)c3)cc2)C(C)(C)C)cc1` [Compound D148], in the experiment on PAXF1657 KO Clone #4, the IC50 turned out to be 8.31 µM. At GRK2 [1], the IC50 stood at 0.0141 µM. Besides, at GRK2 [2], the inhibition at 0.3 µM stood at 46.7%, the inhibition at 1 µM was found to be 21.2% and the inhibition at 3 µM was 0.218%. Besides, the DC50 on GRK2 [2] (PAXF1657, 24 h, read-out: Degradation Assay - Full Dose Response: IC50 (uM) [cell line: PAXF1657, time point: 24 h]) was determined as 2.57 µM. For the same molecule, the IC50 with PAXF1657 EV was 0.1 µM.

In the case of `C[C@H](NC(=O)c1cccc(NCc2nnc(-c3ccncn3)n2C)c1)c1ccc(OCCCCCOCCCOCC(=O)Nc2cccc3c2CN(C2CCC(=O)NC2=O)C3=O)cc1` (stereo partly drawn) [Compound D150, N-((1S)-1-(4-((5-(3-(2-((2-(2,6-dioxopiperidin-3-yl)-1-oxoisoindolin-4-yl)amino)-2-oxoethoxy)propoxy)pentyl)oxy)phenyl)ethyl)-3-(((4-methyl-5-(pyrimidin-4-yl)-4H-1,2,4-triazol-3-yl)methyl)amino)benzamide], the half-maximal inhibitory concentration (IC50) in the experiment with PAXF1657 KO Clone #4 is above 30 µM; on GRK2 [1], above 1 µM; in the experiment on PAXF1657 EV, 27.7 µM. Also, the inhibition at 0.3 µM on GRK2 [2] was 44%. For the same molecule, the inhibition at 1 µM at GRK2 [2] was 43%. The inhibition at 3 µM at GRK2 [2] turned out to be 40%.

Consider `Cc1ncsc1-c1ccc(CNC(=O)[C@@H]2C[C@@H](O)CN2C(=O)[C@@H](NC(=O)COCCCOCCCCCOc2ccc([C@H](C)NC(=O)c3cccc(NCc4nnc(-c5ccncn5)n4C)c3)cc2)C(C)(C)C)cc1` [Compound D151], for which, in the experiment with PAXF1657 KO Clone #4, the concentration for half-maximal inhibition (IC50) was determined as 9.65 µM. The IC50 on GRK2 [1] is above 1 µM. Further, at GRK2 [2], the inhibition at 0.3 µM was determined as 56%, the inhibition at 1 µM worked out at 58% and the inhibition at 3 µM turned out to be 34%. Moreover, in the experiment with PAXF1657 EV, the half-maximal inhibitory concentration (IC50) is 0.3 µM.

Regarding `C[C@H](NC(=O)c1cccc(NCc2nnc(-c3ccncn3)n2C)c1)c1ccc(OCCCCCCOCCOCCOCCCCCC(=O)Nc2cccc3c2CN(C2CCC(=O)NC2=O)C3=O)cc1` (stereo partly drawn) [Compound D152, N-((1S)-1-(4-(6-(2-(2-(6-(2-(2,6-dioxopiperidin-3-yl)-1-oxoisoindolin-4-ylamino)-6-oxohexyloxy)ethoxy)ethoxy)hexyloxy)phenyl)ethyl)-3-((4-methyl-5-(pyrimidin-4-yl)-4H-1,2,4-triazol-3-yl)methylamino)benzamide], the IC50 in the experiment on PAXF1657 KO Clone #4 was above 30 µM; at GRK2 [1], above 1 µM; in the experiment with PAXF1657 EV it was 12.7 µM. Moreover, the inhibition at 0.3 µM on GRK2 [2] was found to be 24%. Also, at GRK2 [2], the inhibition at 1 µM stood at 28%. On GRK2 [2], the inhibition at 3 µM came to 38%.

`Cc1ncsc1-c1ccc(CNC(=O)[C@@H]2C[C@@H](O)CN2C(=O)[C@@H](NC(=O)CCCCCOCCOCCOCCCCCCOc2cccc([C@H](C)NC(=O)c3cccc(NCc4nnc(-c5ccncn5)n4C)c3)c2)C(C)(C)C)cc1` [Compound D153]: in the experiment with PAXF1657 KO Clone #4, the IC50 was determined as 6.82 µM. In addition, the IC50 at GRK2 [1] was 0.125 µM. In addition, on GRK2 [2], the inhibition at 0.3 µM is 10%, the inhibition at 1 µM turned out to be 12% and the inhibition at 3 µM was found to be 18%. Further, in the experiment on PAXF1657 EV, the half-inhibitory concentration (IC50) worked out at 0.34 µM.

For the molecule `C[C@H](NC(=O)c1cccc(NCc2nnc(-c3ccncn3)n2C)c1)c1cccc(OCCCCCCOCCOCCOCCCC(=O)Nc2cccc3c2CN(C2CCC(=O)NC2=O)C3=O)c1` (stereo partly drawn) [Compound D154, N-((1S)-1-(3-(6-(2-(2-(4-(2-(2,6-dioxopiperidin-3-yl)-1-oxoisoindolin-4-ylamino)-4-oxobutoxy)ethoxy)ethoxy)hexyloxy)phenyl)ethyl)-3-((4-methyl-5-(pyrimidin-4-yl)-4H-1,2,4-triazol-3-yl)methylamino)benzamide], in the experiment with PAXF1657 KO Clone #4, the IC50 was above 30 µM. Moreover, at GRK2 [1], the IC50 is 0.183 µM. Moreover, on GRK2 [2], the inhibition at 0.3 µM turned out to be 25.1%, the inhibition at 1 µM was 19.5% and the inhibition at 3 µM is 9.15%. Besides, the 50% inhibitory concentration (IC50) in the experiment on PAXF1657 EV was found to be 4.39 µM.

Take `C[C@@H](NC(=O)c1cccc(NCc2nnc(-c3ccncn3)n2C)c1)c1cccc(OCCCCCOCCCOCCOc2ccc3c(c2)CN(C2CCC(=O)NC2=O)C3=O)c1` (stereo partly drawn) [Compound D160, N-((1R)-1-(3-((5-(3-(2-((2-(2,6-dioxopiperidin-3-yl)-1-oxoisoindolin-5-yl)oxy)ethoxy)propoxy)pentyl)oxy)phenyl)ethyl)-3-(((4-methyl-5-(pyrimidin-4-yl)-4H-1,2,4-triazol-3-yl)methyl)amino)benzamide]: the half-maximal inhibitory concentration (IC50) in the experiment with PAXF1657 KO Clone #4 is above 30 µM. In addition, at GRK2 [1], the IC50 came out at 0.025 µM. Besides, on GRK2 [2], the inhibition at 0.3 µM is 92%, the inhibition at 1 µM is 87% and the inhibition at 3 µM came to 83%. In the experiment with PAXF1657 EV, the half-inhibitory concentration (IC50) worked out at 0.05 µM.

With `Cc1ncsc1-c1ccc(CNC(=O)[C@@H]2C[C@@H](O)CN2C(=O)[C@@H](NC(=O)CCCCCOCCOCCOCCCCCCOc2cccc([C@@H](C)NC(=O)c3cccc(NCc4nnc(-c5ccncn5)n4C)c3)c2)C(C)(C)C)cc1` [Compound D162], the IC50 in the experiment on PAXF1657 KO Clone #4 was 11.4 µM. Besides, the concentration for half-maximal inhibition (IC50) at GRK2 [1] amounted to 0.0141 µM. For the same molecule, at GRK2 [2], the inhibition at 0.3 µM came to 51%, the inhibition at 1 µM worked out at 72.7% and the inhibition at 3 µM is 72.9%. For the same molecule, the IC50 in the experiment on PAXF1657 EV worked out at 0.49 µM.

Turning to `C[C@@H](NC(=O)c1cccc(NCc2nnc(-c3ccncn3)n2C)c1)c1cccc(OCCCCCCOCCOCCOCCCC(=O)Nc2cccc3c2CN(C2CCC(=O)NC2=O)C3=O)c1` (stereo partly drawn) [Compound D163, N-((1R)-1-(3-(6-(2-(2-(4-(2-(2,6-dioxopiperidin-3-yl)-1-oxoisoindolin-4-ylamino)-4-oxobutoxy)ethoxy)ethoxy)hexyloxy)phenyl)ethyl)-3-((4-methyl-5-(pyrimidin-4-yl)-4H-1,2,4-triazol-3-yl)methylamino)benzamide], the half-maximal inhibitory concentration (IC50) in the experiment with PAXF1657 KO Clone #4 is above 30 µM. Besides, the IC50 at GRK2 [1] amounted to 0.0166 µM. At GRK2 [2], the inhibition at 0.3 µM was found to be 74.4%, the inhibition at 1 µM was determined as 81.5% and the inhibition at 3 µM was 89.6%. Further, in the experiment with PAXF1657 EV, the IC50 was 0.37 µM.

As for `Cc1ncsc1-c1ccc([C@H](C)NC(=O)[C@@H]2C[C@@H](O)CN2C(=O)[C@@H](NC(=O)COCCCOCCCCCOc2cccc([C@@H](C)NC(=O)c3cccc(NCc4nnc(-c5ccncn5)n4C)c3)c2)C(C)(C)C)cc1` [Compound D169], the IC50 in the experiment with PAXF1657 KO Clone #4 was 8.15 µM. The half-inhibitory concentration (IC50) at GRK2 [1] amounted to 0.0145 µM. On GRK2 [2], the inhibition at 0.3 µM worked out at 23.6%, the inhibition at 1 µM is 39.4% and the inhibition at 3 µM was found to be 24%. The half-inhibitory concentration (IC50) in the experiment on PAXF1657 EV was 0.12 µM.

Take `C[C@@H](NC(=O)c1cccc(NCc2nnc(-c3ccncn3)n2C)c1)c1cccc(OCCCCCCOCCOCC(=O)Nc2cccc3c2CN(C2CCC(=O)NC2=O)C3=O)c1` (stereo partly drawn) [Compound D170, N-((1R)-1-(3-((6-(2-(2-((2-(2,6-dioxopiperidin-3-yl)-1-oxoisoindolin-4-yl)amino)-2-oxoethoxy)ethoxy)hexyl)oxy)phenyl)ethyl)-3-(((4-methyl-5-(pyrimidin-4-yl)-4H-1,2,4-triazol-3-yl)methyl)amino)benzamide]: the IC50 in the experiment on PAXF1657 KO Clone #4 is above 30 µM. For the same molecule, the half-inhibitory concentration (IC50) on GRK2 [1] stood at 0.0121 µM. On GRK2 [2], the inhibition at 0.3 µM turned out to be 51.6%, the inhibition at 1 µM was 72.9% and the inhibition at 3 µM is 81.5%. In addition, the half-inhibitory concentration (IC50) with PAXF1657 EV came out at 0.41 µM.
